{
  "source": "paper PMC11432330",
  "about": "“Novel Drug-like HsrA Inhibitors Exhibit Potent Narrow-Spectrum Antimicrobial Activities against Helicobacter pylori” (International Journal of Molecular Sciences, 2024)",
  "tested_on": "H. pylori 26695",
  "experiment": "In vivo inhibition of HsrA: RNA-Seq transcriptomic analysis of exposed cells",
  "format": "cell-based, Helicobacter pylori",
  "details": "for log2 Fold Change: exposed to lethal concentrations vs control",
  "experimental": "Bacterial growth from three blood agar plates of H. pylori ATCC 700392 (aka 26695) incubated for 48 h at 37 °C under microaerobic conditions was aseptically resuspended in BHI + FBS and adjusted to 10^7 CFU/mL. BHI broth cultures were incubated microaerobically at 37 °C for 24 h. […] At this time, bacterial growth was stopped by adding 1.5 mL ice-cold RNA stop solution (95% absolute ethanol, 5% acid-buffered phenol) and subsequently incubated on ice. Control samples were exposed to the same amount of DMSO instead of the inhibitor. Helicobacter cells from all samples were harvested by centrifugation (4000 rpm at 4 °C for 10 min), then the pellets were quickly frozen by immersion in liquid nitrogen and stored at −80 °C.\nRNA-Seq analysis was performed by GENEWIZ (Azenta Life Sciences, Leipzig, Germany). Frozen cell pellets from two biological replicates of each treatment condition were properly submitted to GENEWIZ in dry ice. RNA-Seq libraries were prepared according to standard protocols via rRNA depletion, RNA fragmentation and random priming, reverse transcription, 5’-phosphorylation and dA-tailing of cDNAs, adaptor ligation, and PCR enrichment. Once the quality of each library was confirmed, they were sequenced on an Illumina NovaSeq 6000 (Illumina, San Diego, CA, USA) with 150-bp paired-ends. Raw sequence reads were filtered to remove possible adapter sequences and nucleotides with poor quality using Trimmomatic v.0.36 [105]. The trimmed reads were subsequently mapped to the H. pylori strain 26695 reference genome NC_000915.1 available on NCBI, by using the Bowtie2 aligner v.2.2.6 [106]. Unique gene hit counts were calculated by using featureCounts from the Subread package v.1.5.2. Only unique reads that fell within the gene regions were counted. Using DESeq2 [108], a comparison of the gene expression between the control and treated groups of samples was performed. The Wald test was used to generate p-values and log2 fold changes. Genes with an adjusted p-value < 0.05 and absolute log2 fold change >1 were considered as differentially expressed genes (DEGs) for each comparison. The RNA-Seq data generated in this study have been deposited in ArrayExpress with the accession number E-MTAB-14255.",
  "data": [
    {"smiles": "NC(=NOC(=O)Nc1ccc(Cl)cc1)c1csc([N+](=O)[O-])c1", "note": "[Ligand V, N′-{[(4-chloroanilino)carbonyl]}oxy-5-nitrothiophene-3-carboximidamide]", "values": [
      {"measurement": "log2 Fold Change", "setting": "gene HP0450", "value": -0.486},
      {"measurement": "log2 Fold Change", "setting": "gene HP0462", "value": -0.540},
      {"measurement": "log2 Fold Change HP0464", "setting": "gene HP0464, lethal concentrations of V vs control", "value": 0.429},
      {"measurement": "log2 Fold Change", "setting": "gene HP0465", "value": -0.541},
      {"measurement": "log2 Fold Change", "setting": "gene HP0469", "value": 1.295},
      {"measurement": "log2 Fold Change", "setting": "gene HP0472", "value": 1.301},
      {"measurement": "log2 Fold Change HP0474", "setting": "gene HP0474, lethal concentrations of V vs control", "value": 0.428},
      {"measurement": "log2 Fold Change HP0485", "setting": "gene HP0485, lethal concentrations of V vs control", "value": 0.392},
      {"measurement": "log2 Fold Change HP0513", "setting": "gene HP0513, lethal concentrations of V vs control", "value": 0.406},
      {"measurement": "log2 Fold Change HP0515", "setting": "gene HP0515, lethal concentrations of V vs control", "value": 0.192},
      {"measurement": "log2 Fold Change", "setting": "gene HP0518", "value": -0.587},
      {"measurement": "log2 Fold Change HP0536", "setting": "gene HP0536, lethal concentrations of V vs control", "value": 0.397},
      {"measurement": "log2 Fold Change", "setting": "gene HP0537", "value": -0.567},
      {"measurement": "log2 Fold Change HP0540", "setting": "gene HP0540, lethal concentrations of V vs control", "value": 0.190},
      {"measurement": "log2 Fold Change HP0546", "setting": "gene HP0546, lethal concentrations of V vs control", "value": 0.161},
      {"measurement": "log2 Fold Change", "setting": "gene HP0555", "value": -0.497},
      {"measurement": "log2 Fold Change HP0563", "setting": "gene HP0563, lethal concentrations of V vs control", "value": 0.320},
      {"measurement": "log2 Fold Change", "setting": "gene HP0568", "value": -0.470},
      {"measurement": "log2 Fold Change HP0586", "setting": "gene HP0586, lethal concentrations of V vs control", "value": 0.156},
      {"measurement": "log2 Fold Change HP0587", "setting": "gene HP0587, lethal concentrations of V vs control", "value": 0.303},
      {"measurement": "log2 Fold Change HP0602", "setting": "gene HP0602, lethal concentrations of V vs control", "value": 0.450},
      {"measurement": "log2 Fold Change", "setting": "gene HP0608", "value": -0.470},
      {"measurement": "log2 Fold Change", "setting": "gene HP0613", "value": 1.327},
      {"measurement": "log2 Fold Change HP0639", "setting": "gene HP0639, lethal concentrations of V vs control", "value": 0.172},
      {"measurement": "log2 Fold Change HP0640", "setting": "gene HP0640, lethal concentrations of V vs control", "value": 0.392},
      {"measurement": "log2 Fold Change", "setting": "gene HP0641", "value": -0.474},
      {"measurement": "log2 Fold Change", "setting": "gene HP0642", "value": -0.561},
      {"measurement": "log2 Fold Change", "setting": "gene HP0648", "value": -0.611},
      {"measurement": "log2 Fold Change HP0650", "setting": "gene HP0650, lethal concentrations of V vs control", "value": 0.145},
      {"measurement": "log2 Fold Change HP0652", "setting": "gene HP0652, lethal concentrations of V vs control", "value": 0.477},
      {"measurement": "log2 Fold Change HP0660", "setting": "gene HP0660, lethal concentrations of V vs control", "value": 0.172},
      {"measurement": "log2 Fold Change HP0670", "setting": "gene HP0670, lethal concentrations of V vs control", "value": 0.376},
      {"measurement": "log2 Fold Change HP0680", "setting": "gene HP0680, lethal concentrations of V vs control", "value": 0.219},
      {"measurement": "log2 Fold Change", "setting": "gene HP0692", "value": 1.329},
      {"measurement": "log2 Fold Change HP0699", "setting": "gene HP0699, lethal concentrations of V vs control", "value": 0.318},
      {"measurement": "log2 Fold Change", "setting": "gene HP0702", "value": -0.528},
      {"measurement": "log2 Fold Change HP0709", "setting": "gene HP0709, lethal concentrations of V vs control", "value": 0.245},
      {"measurement": "log2 Fold Change", "setting": "gene HP0734", "value": -0.529},
      {"measurement": "log2 Fold Change", "setting": "gene HP0737", "value": -0.509},
      {"measurement": "log2 Fold Change", "setting": "gene HP0741", "value": -0.519},
      {"measurement": "log2 Fold Change HP0742", "setting": "gene HP0742, lethal concentrations of V vs control", "value": 0.440},
      {"measurement": "log2 Fold Change HP0748", "setting": "gene HP0748, lethal concentrations of V vs control", "value": 0.146},
      {"measurement": "log2 Fold Change HP0750", "setting": "gene HP0750, lethal concentrations of V vs control", "value": 0.398},
      {"measurement": "log2 Fold Change", "setting": "gene HP0755", "value": -0.518},
      {"measurement": "log2 Fold Change", "setting": "gene HP0759", "value": 1.350},
      {"measurement": "log2 Fold Change HP0763", "setting": "gene HP0763, lethal concentrations of V vs control", "value": 0.150},
      {"measurement": "log2 Fold Change", "setting": "gene HP0765", "value": -0.541},
      {"measurement": "log2 Fold Change", "setting": "gene HP0772", "value": -0.471},
      {"measurement": "log2 Fold Change HP0773", "setting": "gene HP0773, lethal concentrations of V vs control", "value": 0.301},
      {"measurement": "log2 Fold Change HP0782", "setting": "gene HP0782, lethal concentrations of V vs control", "value": 0.353},
      {"measurement": "log2 Fold Change HP0796", "setting": "gene HP0796, lethal concentrations of V vs control", "value": 0.282},
      {"measurement": "log2 Fold Change HP0803", "setting": "gene HP0803, lethal concentrations of V vs control", "value": 0.182},
      {"measurement": "log2 Fold Change HP0805", "setting": "gene HP0805, lethal concentrations of V vs control", "value": 0.416},
      {"measurement": "log2 Fold Change", "setting": "gene HP0810", "value": -0.532},
      {"measurement": "log2 Fold Change", "setting": "gene HP0819", "value": -0.529},
      {"measurement": "log2 Fold Change HP0820", "setting": "gene HP0820, lethal concentrations of V vs control", "value": 0.198},
      {"measurement": "log2 Fold Change HP0823", "setting": "gene HP0823, lethal concentrations of V vs control", "value": 0.406},
      {"measurement": "log2 Fold Change HP0833", "setting": "gene HP0833, lethal concentrations of V vs control", "value": 0.436},
      {"measurement": "log2 Fold Change HP0836", "setting": "gene HP0836, lethal concentrations of V vs control", "value": 0.282},
      {"measurement": "log2 Fold Change", "setting": "gene HP0840", "value": -0.593},
      {"measurement": "log2 Fold Change HP0858", "setting": "gene HP0858, lethal concentrations of V vs control", "value": 0.348},
      {"measurement": "log2 Fold Change", "setting": "gene HP0861", "value": -0.479},
      {"measurement": "log2 Fold Change HP0864", "setting": "gene HP0864, lethal concentrations of V vs control", "value": 0.392},
      {"measurement": "log2 Fold Change HP0872", "setting": "gene HP0872, lethal concentrations of V vs control", "value": 0.335},
      {"measurement": "log2 Fold Change", "setting": "gene HP0885", "value": -0.551},
      {"measurement": "log2 Fold Change HP0890", "setting": "gene HP0890, lethal concentrations of V vs control", "value": 0.409},
      {"measurement": "log2 Fold Change HP0897", "setting": "gene HP0897, lethal concentrations of V vs control", "value": 0.220},
      {"measurement": "log2 Fold Change HP0898", "setting": "gene HP0898, lethal concentrations of V vs control", "value": 0.196},
      {"measurement": "log2 Fold Change HP0900", "setting": "gene HP0900, lethal concentrations of V vs control", "value": 0.416},
      {"measurement": "log2 Fold Change HP0909", "setting": "gene HP0909, lethal concentrations of V vs control", "value": 0.281},
      {"measurement": "log2 Fold Change", "setting": "gene HP0916", "value": -0.568},
      {"measurement": "log2 Fold Change", "setting": "gene HP0935", "value": -0.494},
      {"measurement": "log2 Fold Change", "setting": "gene HP0936", "value": -0.576},
      {"measurement": "log2 Fold Change", "setting": "gene HP0939", "value": -0.568},
      {"measurement": "log2 Fold Change HP0946", "setting": "gene HP0946, lethal concentrations of V vs control", "value": 0.226},
      {"measurement": "log2 Fold Change HP0948", "setting": "gene HP0948, lethal concentrations of V vs control", "value": 0.237},
      {"measurement": "log2 Fold Change HP0949", "setting": "gene HP0949, lethal concentrations of V vs control", "value": 0.337},
      {"measurement": "log2 Fold Change", "setting": "gene HP0953", "value": -0.500},
      {"measurement": "log2 Fold Change HP0955", "setting": "gene HP0955, lethal concentrations of V vs control", "value": 0.173},
      {"measurement": "log2 Fold Change HP0963", "setting": "gene HP0963, lethal concentrations of V vs control", "value": 0.462},
      {"measurement": "log2 Fold Change HP0976", "setting": "gene HP0976, lethal concentrations of V vs control", "value": 0.322}
    ]}
  ]
}
